Data published in patent US12565522B2, “Micropeptide HMMW and application thereof” (NANJING ANJI BIOTECHNOLOGY CO., LTD., priority 2019, dated 2026).
No end group written: not given here.

What was measured:
[1] = system: SCC4 cells of head and neck cancer; assay type: in vivo, BALB/c nude mice; settings: for in vivo tumor growth inhibition rate: mouse, 15 mg/kg
Method: (§1) • (1) Massively culture SCC4 cells of head and neck cancer, SW579 cells of thyroid cancer, A549 cells of lung cancer, TE13 cells of esophageal squamous cell carcinoma, MGC803 cells of stomach cancer, MDA-MB-231 cells of breast cancer, UOK262 cells of kidney cancer, and A431 cells of skin cancer of human, digest with a 0.25% pancreatin solution, centrifuge the cell suspension at 1,000 rpm for 5 min after termination of digestion, re-suspend the cells by serum-free DMEM culture medium, then count the cells and adjust cell concentration to 5×10^7 cells/ml; • (2) Inoculate each nude mouse (female mice at the age of 4-6 weeks and with a weight of 14-16 g were ordered and adaptively reared for 1 week in an SPF animal breeding room) with 100 μl of the cell suspension of the corresponding group in the left armpit, and the number of cells injected is 5×10^6; • (3) After inoculation, the tumor growth at the inoculation sites of nude mice was closely observed. On the 7th day after inoculation, white scabs appeared at the inoculation sites, which could move subcutaneously after being touched. With the growth of tumor tissue, hard tumor masses were gradually formed at the inoculation sites. On about the 14th day, the average volume of the tumor tissue reached 100 mm^3. BALB/c nude mice were randomly divided into three groups (the normal saline group was a blank control group, the micropeptide HMMW at a dose of 10 mg/kg was a low-dose group, and the micropeptide HMMW at a dose of 15 mg/kg was a high-dose group), 6 mice in each group, and the animals weighed 16-18 g at the beginning of administration; • (4) The volume of the transplanted tumor was measured and recorded every two days. The calculation formula of tumor volume (TV) is shown below: TV=0.5×a×b^2 • where, a is the length of the transplanted tumor (mm), and b is the width of the transplanted tumor (mm). • (1) Massively culture SCC4 cells of head and neck cancer, SW579 cells of thyroid cancer, A549 cells of lung cancer, TE13 cells of esophageal squamous cell carcinoma, MGC803 cells of stomach cancer, MDA-MB-231 cells of breast cancer, UOK262 cells of kidney cancer, and A431 cells of skin cancer of human, digest with a 0.25% pancreatin solution, centrifuge the cell suspension at 1,000 rpm for 5 min after termination of digestion, re-suspend the cells by serum-free DMEM culture medium, then count the cells and adjust cell concentration to 5×10^7 cells/ml; • (2) Inoculate each nude mouse (female mice at the age of 4-6 weeks and with a weight of 14-16 g were ordered and adaptively reared for 1 week in an SPF animal breeding room) with 100 μl of the cell suspension of the corresponding group in the left armpit, and the number of cells injected is 5×10^6; • (3) After inoculation, the tumor growth at the inoculation sites of nude mice was closely observed. On the 7th day after inoculation, white scabs appeared at the inoculation sites, which could move subcutaneously after being touched. With the growth of tumor tissue, hard tumor masses were gradually formed at the inoculation sites. On about the 14th day, the average volume of the tumor tissue reached 100 mm^3. BALB/c nude mice were randomly divided into three groups (the normal saline group was a blank control group, and each of micropeptides HMMW I to IX formed a group at a dose of 15 mg/kg), 6 mice in each group, and the animals weighed 16-18 g at the beginning of administration; • (4) The volume of the transplanted tumor was measured and recorded every two days. The calculation formula of tumor volume (TV) is shown below: TV=0.5×a×b^2 • where, a is the length of the transplanted tumor (mm), and b is the width of the transplanted tumor (mm).

[2] = system: MGC803 cells of stomach cancer; assay type: in vivo, BALB/c nude mice; settings: for in vivo tumor growth inhibition rate: mouse, 15 mg/kg
Method: as §1

[3] = system: MDA-MB-231 cells of breast cancer; assay type: in vivo, BALB/c nude mice; settings: for in vivo tumor growth inhibition rate: mouse, 15 mg/kg
Method: as §1

[4] = system: A549 cells of lung cancer; assay type: in vivo, BALB/c nude mice; settings: for in vivo tumor growth inhibition rate: mouse, 15 mg/kg
Method: as §1

[5] = system: TE13 cells of esophageal squamous cell carcinoma; assay type: in vivo, BALB/c nude mice; settings: for in vivo tumor growth inhibition rate: mouse, 15 mg/kg
Method: as §1

[6] = system: A431 cells of skin cancer; assay type: in vivo, BALB/c nude mice; settings: for in vivo tumor growth inhibition rate: mouse, 15 mg/kg
Method: as §1

[7] = system: UOK262 cells of kidney cancer; assay type: in vivo, BALB/c nude mice; settings: for in vivo tumor growth inhibition rate: mouse, 15 mg/kg
Method: as §1

[8] = system: SW579 cells of thyroid cancer; assay type: in vivo, BALB/c nude mice; settings: for in vivo tumor growth inhibition rate: mouse, 15 mg/kg
Method: as §1

[9] = system: TE13 cells of esophageal squamous cell carcinoma; assay: transwell migration test; assay type: cell-based, human; settings: 24 h
Method: Inoculate SCC4 cells of head and neck cancer, SW579 cells of thyroid cancer, A549 cells of lung cancer, TE13 cells of esophageal squamous cell carcinoma, MGC803 cells of stomach cancer, MDA-MB-231 cells of breast cancer, UOK262 cells of kidney cancer, and A431 cells of skin cancer of human to transwell cells, 100 μL per well, and meanwhile add micropeptides HMMW I to IX at different doses to every cell. Add 0.6 mL of complete medium containing 10% FBS to the transwell cells to stimulate cell migration, and culture in 5% CO2 at 37 DEG C. for 24 h. Discard the medium in the wells, fix with 90% alcohol at room temperature for 30 min, stain with 0.1% crystal violet at room temperature for 10 min, rinse with clear water, gently wipe off the non-migrated cells in the upper layer with a cotton swab, observe under a microscope and select four fields of view to take pictures and count. Calculate the migration inhibition rate (MIR) of the cells according to the following formula: […]
The test was repeated independently three times. Mean±SD was calculated based on the test results. Statistical t test was done. Here, “the test was repeated independently three times” means that every dose of any type of cells was tested repeatedly three times, and then the above formula was used to calculate the number of migrated cells (Mean±SD). Value P was used to express statistical difference. The statistical significance of the results is a method for estimating how true the results are (the totality can be represented), *P<0.05 means significant difference, and **P<0.01 means very significant difference.

| Substance | in vivo tumor growth inhibition rate [1] | in vivo tumor growth inhibition rate [2] | in vivo tumor growth inhibition rate [3] | in vivo tumor growth inhibition rate [4] | in vivo tumor growth inhibition rate [5] | in vivo tumor growth inhibition rate [6] | in vivo tumor growth inhibition rate [7] | in vivo tumor growth inhibition rate [8] | migration inhibition rate ([9]; dose 1 μM) | migration inhibition rate ([9]; dose 4 μM) | migration inhibition rate ([9]; dose 16 μM) | inhibition of tumorigenicity in vivo ([1]; SCC4, nude mice, 10 and 15 mg/kg, vs normal saline, dose-dependent (Embodiment 6)) | inhibition of tumorigenicity in vivo ([2]; MGC803, nude mice, 10 and 15 mg/kg, vs normal saline, dose-dependent (Embodiment 6)) | inhibition of tumorigenicity in vivo ([3]; MDA-MB-231, nude mice, 10 and 15 mg/kg, vs normal saline, dose-dependent (Embodiment 6)) | inhibition of tumorigenicity in vivo ([4]; A549, nude mice, 10 and 15 mg/kg, vs normal saline, dose-dependent (Embodiment 6)) | inhibition of tumorigenicity in vivo ([5]; TE13, nude mice, 10 and 15 mg/kg, vs normal saline, dose-dependent (Embodiment 6)) | inhibition of tumorigenicity in vivo ([6]; A431, nude mice, 10 and 15 mg/kg, vs normal saline, dose-dependent (Embodiment 6)) | inhibition of tumorigenicity in vivo ([7]; UOK262, nude mice, 10 and 15 mg/kg, vs normal saline, dose-dependent (Embodiment 6)) | inhibition of tumorigenicity in vivo ([8]; SW579, nude mice, 10 and 15 mg/kg, vs normal saline, dose-dependent (Embodiment 6)) |
| --- | --- | --- | --- | --- | --- | --- | --- | --- | --- | --- | --- | --- | --- | --- | --- | --- | --- | --- | --- |
| MERAGVPGFSPRRSSVEAKMQSTSCSVRKSSTVTAWPAVVLLLHTSKDDEE-OH [HMMW-II] | 66.24% | 70.08% | 68.95% | 71.32% | 62.86% | 71.22% | 63.12% | 64.76% | 22.74% | 40.23% | 65.31% | – | – | – | – | – | – | – | – |
| MERAGVPGFSPRRSSVEAKMQSTSCSVRKSSTVTAWPAVVLLLSWGKDDEE-OH [HMMW-IV] | 71.72% | 67.52% | 65.93% | 68.25% | 61.41% | 71.71% | 64.70% | 72.13% | 22.76% | 41.29% | 65.32% | – | – | – | – | – | – | – | – |
| MERAGVPGFSPRRSSVEAKMQSTSCSVRKSSTVTAWPAVVLLLSWGQRDEE-OH [HMMW-VI] | 73.54% | 66.51% | 71.18% | 65.27% | 65.56% | 68.25% | 65.19% | 66.79% | 21.76% | 40.21% | 66.32% | – | – | – | – | – | – | – | – |
| MERAGVPGFSPRRSSVEAKMQSTSCSVRKSSTVTAWPAVVLLLSWGQRRGE-OH [HMMW-VIII] | 68.24% | 69.38% | 69.82% | 69.30% | 68.81% | 68.21% | 65.15% | 71.76% | 23.73% | 42.23% | 63.31% | – | – | – | – | – | – | – | – |
| MERAGVPGFSPRRSSVEAKMQSTSCSVRKSSTVTAWPAVVLLLSWGQRRGG-OH [HMMW-I] | 72.56% | 68.12% | 67.97% | 69.23% | 65.43% | 62.74% | 63.80% | 66.63% | 23.76% | 42.29% | 68.32% | significantly inhibit | significantly inhibit | significantly inhibit | significantly inhibit | significantly inhibit | significantly inhibit | significantly inhibit | significantly inhibit |
| MGRAGVPGFSPRRSSVEAKMQSTSCSVRKSSTVTAWPAVVLLLSWGQRRGG-OH [HMMW-IX] | 71.84% | 68.61% | 69.36% | 69.09% | 65.31% | 64.33% | 65.23% | 67.89% | 21.76% | 40.29% | 65.32% | – | – | – | – | – | – | – | – |
| MGSTGVPGFSPRRSSVEAKMQSTSCSVRKSSTVTAWPAVVLLLSWGQRRGG-OH [HMMW-VII] | 72.75% | 65.11% | 68.91% | 69.13% | 71.23% | 67.70% | 64.37% | 68.63% | 23.64% | 41.21% | 63.30% | – | – | – | – | – | – | – | – |
| MGSTYNKRHSPRRSSVEAKMQSTSCSVRKSSTVTAWPAVVLLLSWGQRRGG-OH [HMMW-III] | 70.84% | 69.62% | 69.49% | 73.08% | 66.31% | 69.54% | 61.67% | 71.89% | 22.76% | 41.29% | 65.32% | – | – | – | – | – | – | – | – |
| MGSTYNPGFSPRRSSVEAKMQSTSCSVRKSSTVTAWPAVVLLLSWGQRRGG-OH [HMMW-V] | 67.14% | 71.04% | 67.75% | 71.12% | 63.46% | 69.41% | 64.16% | 70.78% | 23.74% | 42.23% | 64.31% | – | – | – | – | – | – | – | – |
